According to US11571435B2, “S1PR4-targeting composition for preventing or treating non-alcoholic steatohepatitis” (UNIVERSITY OF ULSAN FOUNDATION FOR INDUSTRY COOPERATION, priority 2017, dated 2023):

Assays:
[1] = reported for FTY720; cited from earlier work
S1PR4-EGFP = assay: S1PR4 internalization and recycling in cell lines overexpressing S1PR4-EGFP (fluorescence microscopy); assay type: cell-based; conditions: S1P 100 nM, FTY720 100 nM, SLB736 1 μM, cycloheximide; for S1PR4 internalization: 30 minutes after treatment; for S1PR4 recycling to the cell membrane: 2 hours (washed after 30 minutes)
Description: Cell lines overexpressing S1PR4-EGFP were used to identify whether or not SLB736 and FTY720 actually internalize S1PR4 into cells and thereby act as functional antagonists.
Specifically, the cell lines overexpressing S1PR4-EGFP were incubated in a cover glass allowing for microscopic observation and were then treated with a vehicle (dimethyl sulfoxide […]), S1P (100 nM; agonist, positive control group), FTY720 (100 nM) and SLB736 (1 μM). 30 minutes and 2 hours after treatment with each material, the cell lines were fixed with a fixing solution and observed with a fluorescence microscope. At this time, the cells were cultured after treatment with a protein synthesis inhibitor (cycloheximide) in order to inhibit the synthesis of new receptors, were first observed with a fluorescence microscope 30 minutes after each material treatment, and were then washed. Then, the cells were further cultured for 1 hour 30 minutes and were secondarily observed, and cell images were obtained.

NLRP3 inflammasome = assay: IL-1β production of LPS-treated macrophages (NLRP3 inflammasome activity); assay type: cell-based, mouse; conditions: Raw cells; for inhibitory effect of IL-1β production: then LPS
Source text: It is well known that the treatment of macrophages with lipopolysaccharide (LPS) results in activation of inflammation-regulating complex (inflammasome), thereby increasing IL-1β production (Mariathasan et al., Nat. Rev. Immunol. 2007; 17186029). In order to determine the inhibitory effect of the activity of inflammation-regulating complex (NLRP3 inflammasome), which is a representative inflammation-regulating protein, the IL-1(3 production of candidate substances upon the treatment of macrophages with LPS was measured and evaluated.
The macrophages were treated with myriocin in different concentrations as a control group and were then treated with the same concentration of LPS for 24 hours. […] Based on this, experiments were conducted to determine the effect of sphingolipid candidates on the inhibition of IL-1β.

[2] = leukocytes and lymphocytes in whole blood after administration (lymphopenia); assay type: in vivo, mouse; conditions: mice, automated analyzer
Description: Therefore, when the SLB736 of the present invention was administered, changes of leukocytes and lymphocytes in the blood were measured to determine the possibility of side effects. On the day of autopsy, blood was collected from the posterior vein using a syringe and whole blood was refrigerated in an EDTA-2K CBC bottle. The leukocytes and lymphocytes in the whole blood were measured using an automated analyzer.

S1PR4 [3] = molecular target: T1, S1PR4 (Homo sapiens, UniProt O95977); assay: agonistic activity of S1P receptors, GPCR activity measurement method of DiscoveRX Corp.; assay type: cell-based
T1 construct: purchased DiscoveRX Corp
T1 sequence (O95977 1-384): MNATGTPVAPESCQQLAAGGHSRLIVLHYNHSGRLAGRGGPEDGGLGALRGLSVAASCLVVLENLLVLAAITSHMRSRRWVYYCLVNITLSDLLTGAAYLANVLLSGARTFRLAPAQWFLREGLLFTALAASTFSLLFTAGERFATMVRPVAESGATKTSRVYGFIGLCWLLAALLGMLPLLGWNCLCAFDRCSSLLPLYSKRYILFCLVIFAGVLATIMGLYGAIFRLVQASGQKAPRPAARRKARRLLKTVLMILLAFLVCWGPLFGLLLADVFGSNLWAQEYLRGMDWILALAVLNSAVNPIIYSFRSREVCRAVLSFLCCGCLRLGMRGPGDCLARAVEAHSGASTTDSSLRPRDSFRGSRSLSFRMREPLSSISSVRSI

[4] = system: non-alcoholic steatohepatitis (NASH) caused by MCDD; assay: prevention of NASH onset in mice administered MCDD for 6 weeks; assay type: in vivo, mouse
Source text: In order to identify the effect of the SLB736 compound on the prevention of onset of non-alcoholic steatohepatitis (NASH), an animal model administered with MCDD for 6 weeks was used. Generally known characteristic microscopic findings of NASH include steatosis, ballooning degeneration of hepatocytes, lobular inflammation, perisinusoidal fibrosis and the like. In 2005, the NASH clinical research network (CRN) designed a detailed grading system for lesions corresponding to nonalcoholic steatohepatitis and thus proposed the nonalcoholic fatty liver disease activity score (NAS), which is widely used in various research due to the excellent reproducibility thereof. Accordingly, the present inventors have scored the grade of steatosis, location of steatosis, lobular inflammation and the extent of fibrosis, from the results of liver tissue observation of animal models, based on the CRN classification system. Based on this, the effect of SLB736, which is the target compound in the present invention, on the prevention or progression of non-alcoholic steatohepatitis caused by MCDD was evaluated. […] In order to determine this quantitatively, evaluation was conducted according to the NAS system of the CRN. […] In addition, the expression levels of TGF-β, TNF-α and MCP-1 were measured in order to identify the effects of the SLB736 compound on the expression of inflammatory markers and fibrosis markers in liver tissue. Specifically, RNA was extracted from liver tissue of the animal model and mRNA was measured using Q-PCR.

S1PR4 [5] = molecular target: T2, S1PR4 (Mus musculus, UniProt Q9Z0L1); assay: S1PR4 protein expression in liver tissue of MCDD-fed mice (Western blotting); assay type: in vivo; conditions: C57BL/6N mice, 1 mg/kg with MCDD for 6 weeks, vs MCDD alone
T2 construct: endogenous in cells; host or cells: Raw cells (mouse macrophage line)
T2 sequence (Q9Z0L1 1-386): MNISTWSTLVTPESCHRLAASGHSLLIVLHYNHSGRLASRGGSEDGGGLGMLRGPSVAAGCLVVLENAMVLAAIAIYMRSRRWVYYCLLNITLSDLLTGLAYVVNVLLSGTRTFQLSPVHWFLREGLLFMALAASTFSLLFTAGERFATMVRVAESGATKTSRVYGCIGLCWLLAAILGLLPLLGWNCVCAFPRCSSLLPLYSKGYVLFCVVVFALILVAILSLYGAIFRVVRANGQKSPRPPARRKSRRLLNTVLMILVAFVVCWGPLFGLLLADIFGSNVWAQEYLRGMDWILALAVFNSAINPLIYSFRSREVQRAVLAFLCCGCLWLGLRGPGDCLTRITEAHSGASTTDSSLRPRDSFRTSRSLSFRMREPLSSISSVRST
Source text: In order to determine whether or not SLB736, the compound of the present invention, acts as a functional antagonist of S1PR4, changes in S1PR4 protein expression were observed after administration of candidate substances to nonalcoholic steatohepatitis (NASH) model mice and macrophages thereof.
It is well known that the administration of a methionine choline-deficient diet (MCDD) to mice results in non-alcoholic steatohepatitis. The mice (C57BL/6N, Orient Bio, Inc., Korea) used in the experiments were divided into three groups, and MCDD alone, 1 mg/kg of MCDD and FTY720, and 1 mg/kg of MCDD and SLB736 were administered to each group for 6 weeks. Then, changes in the expression of S1PR4 protein in liver tissue of mice were measured through Western blotting.

S1PR4 [6] = molecular target: T2, S1PR4; assay: S1PR4 expression in LPS-treated Raw cells; assay type: cell-based; conditions: substance then LPS, vs LPS only
Description: In addition, Raw cells, which are mouse macrophage lines, were treated with a FTY720 or SLB736 substance, and were then treated with LPS, and S1PR4 expression was then measured.

[7] = system: non-alcoholic steatohepatitis (NASH) caused by MCDD; assay: treatment of NASH in NASH-induced mice (MCDD for 4 weeks, then 4 weeks treatment); assay type: in vivo, mouse; conditions: 5 mg/kg/day for 4 weeks after 4 weeks MCDD, liver tissue
Description: A NASH-induced animal model obtained by administering MCDD to 8-week-old mice (C57BL6/N, Orient Bio Inc., Korea) for 4 weeks was used in order to identify the effect of the SLB736 compound on the treatment of non-alcoholic steatohepatitis (NASH). Specifically, the NASH-induced model mice were divided into two groups, the control group was further fed with MCDD for 4 weeks, the experimental group was fed with SLB736 at a dose of 5 mg/kg/day for 4 weeks in combination with MCDD, and liver tissue was collected from each mouse and observed with a microscope to determine the degree of steatosis, lobular inflammation and fibrosis.

[8] = 10 times a normal dose; cited from earlier work
[9] = 1 mg/kg/day for six weeks with MCDD, liver tissue
[10] = 1 mg/kg/day for six weeks with MCDD, vs control group
[11] = liver tissue, MCDD 6 weeks model

## CCCCCCCCc1ccc(CCC(N)(CO)CO)cc1 [FTY720, Fingolimod]
[1]
  side effect in the blood: lymphopenia in the blood

## CCCCCCCCCCCCC/C=C/[C@@H](O)[C@@H](N)COP(=O)(O)O [S1P, sphingosine 1-phosphate, reference compound]
S1PR4-EGFP
  S1PR4 internalization: internalized
  S1PR4 recycling to the cell membrane: recycled to the cell membrane

## CCCCCCCCCCn1cc(CCC(N)(CO)CO)nn1 [SLB736, 2-amino-2-(2-(1-decyl-1H-1,2,3-triazol-4-yl)ethyl)propane-1,3-diol]
NLRP3 inflammasome; 0.1 μM
  inhibitory effect of IL-1β production: excellent
NLRP3 inflammasome; 1.0 μM
  inhibitory effect of IL-1β production: excellent
[2]
  leukocytes in blood: no reduction
  lymphocytes in blood: no reduction
S1PR4 [3]
  agonistic activity of S1P receptors: agonistic effect specific for S1PR4
[4]; [9]
  degree of fibrosis (microscope): significantly reduced
  degree of steatosis (microscope): significantly reduced
  lobular inflammation (microscope): significantly reduced
[4]; [10]
  degree of fibrosis, NAS system of the CRN: significantly alleviated
  degree of steatosis, NAS system of the CRN: significantly alleviated
  lobular inflammation, NAS system of the CRN: significantly alleviated
[4]; [11]
  expression of MCP-1 (mRNA, Q-PCR): reduced to a significant level
  expression of TGF-β (mRNA, Q-PCR): reduced to a significant level
  expression of TNF-α (mRNA, Q-PCR): reduced to a significant level
S1PR4-EGFP
  S1PR4 internalization: internalized
  S1PR4 recycling to the cell membrane: not recycled
S1PR4 [5]
  amount of S1PR4 protein in liver tissue: decreased
S1PR4 [6]
  expression level of S1PR4: significantly reduce
[7]
  degree of fibrosis (microscope): considerable reduction
  degree of steatosis (microscope): considerable reduction
  lobular inflammation (microscope): considerable reduction

## CCCCCCC(=O)CCCCCC/C=C/C[C@@H](O)[C@H](O)[C@@](N)(CO)C(=O)O [myriocin, reference compound]
NLRP3 inflammasome; 10 μM, then LPS 100 ng/ml for 24 hours
  IL-1β production: effectively reduced IL-1β production
[8]
  toxicity in animals: death from severe digestive disorders
